Like-named read-outs stand apart in the source and are kept apart here. Where only a bound is given, the exact number is not on record here.

In one assay the target is isomerase (Mus musculus (Mouse), UniProt Q91ZQ5). Kind of assay: In vivo murine isomerase assay (recovery of 11-cis-retinal after photobleaching). More on the design: species or system mice. The note with it: for inhibition at 1 mg/kg: read-out: % Inhibition 1 mg/kg, 4 h; for ED50: in vivo inhibition of isomerase, Table 10. The protocol: The capability of compounds described herein to inhibit isomerase was determined by an in vivo murine isomerase assay. Brief exposure of the eye to intense light (“photobleaching” of the visual pigment or simply “bleaching”) is known to photo-isomerize almost all 11-cis-retinal in the retina. The recovery of 11-cis-retinal after bleaching can be used to estimate the activity of isomerase in vivo. Delayed recovery, as represented by lower 11-cis-retinal oxime levels, indicates inhibition of isomerization reaction.
The mice were allowed to recover 2 hours in the dark. The animals were then sacrificed by carbon dioxide inhalation. Retinoids were extracted from the eye and the regeneration of 11-cis-retinal was assessed at various time intervals.
After the mice were sacrificed, the eyes were immediately removed and placed in liquid nitrogen for storage.
The eyes were placed in 500 μL of bis-tris propane buffer (10 mM, pH ˜7.3) and 20 µL of 0.8M hydroxile amine (pH-7.3). The eyes were cut up into small pieces with small iris scissors and then thoroughly homogenized at 30000 rpm with a mechanical homogenizer (Polytron PT 1300 D) in the tube until no visible tissue remained. 500 μL of methanol and 500 μL of heptane were added to each tube. The tubes were attached to a vortexer so that the contents were mixed thoroughly for 15 minutes in room temperature. The organic phase was separated from the aqueous phase by centrifugation for 10 min at 13K rpm, 4° C. 240 μL of the solution from the top layer (organic phase) was removed and transferred to clean 300 μl glass inserts in HPLC vials using glass pipette and the vials were crimped shut tightly.
Loading volume for each sample is 100 μl; detection wavelength is 360 nm. The area under the curve for 11-cis retinal oxime was calculated by Agilent Chemstation software and was recorded manually. Data processing was performed using Prizm software.
Positive control mice (no compound administered) were sacrificed fully dark-adapted and the eye retinoids analyzed. Light (bleached) control mice (no compound administered) were sacrificed and retinoids isolated and analyzed immediately after light treatment.
Mice were sacrificed 2 hours after bleaching, eyes were enucleated, and retinoid content was analyzed by HPLC.
Recovery control mice (vehicle-only treated) were light-treated and left to recover for 2 hours in the dark before sacrifice and analysis. Light control mice (vehicle only treated) were sacrificed for analysis immediately after photo-bleaching.

In the next assay the target is visual cycle isomerase (Bos taurus (Bovine), UniProt Q28175). Briefly: Bovine in vitro isomerase inhibition assay (RPE microsome membranes).
Assay [1] addresses recombinant human RPE65 and LRAT (Homo sapiens (Human), UniProt Q16518). Briefly: Human in vitro isomerase inhibition assay. It is filed as biochemical. To be noted: Human in vitro Inhibition data; inhibition of 11-cis-retinol formation; HEK293 homogenate, all-trans-retinol about 20 μM, 37° C., one hour; given as ranges. On the procedure:
The concentration dependent effect of the compounds disclosed herein on the retinol isomerization reaction was also evaluated with a recombinant human enzyme system. […] A homogenate of HEK293 cell clone expressing recombinant human RPE65 and LRAT were the source of the visual enzymes, and exogenous all-trans-retinol (about 20 μM) was used as the substrate. Recombinant human CRALBP (about 80 ug/mL) was added to enhance the formation of 11 cis-retinal. The 200 μL Bis-Tris Phosphate buffer (10 mM, pH 7.2) based reaction mixture also contains 0.5% BSA, and 1 mM NaPPi. In this assay, the reaction was carried out at 37° C. in duplicates for one hour and was terminated by addition of 300 μL methanol. The amount of reaction product, 11-cis-retinol, was measured by HPLC analysis following Heptane extraction of the reaction mixture. […] The ability of the numerous compounds disclosed herein to inhibit isomerization reaction is quantified and the respective IC50 value is determined.

Where [2] appears, read: Bovine in vitro Inhibition data, inhibition of 11-cis retinol formation, bovine RPE microsomes, 20 μM all-trans retinol, 37° C., 30 minutes, given as ranges.

recombinant human RPE65 and LRAT, sequence (Q16518 2-533): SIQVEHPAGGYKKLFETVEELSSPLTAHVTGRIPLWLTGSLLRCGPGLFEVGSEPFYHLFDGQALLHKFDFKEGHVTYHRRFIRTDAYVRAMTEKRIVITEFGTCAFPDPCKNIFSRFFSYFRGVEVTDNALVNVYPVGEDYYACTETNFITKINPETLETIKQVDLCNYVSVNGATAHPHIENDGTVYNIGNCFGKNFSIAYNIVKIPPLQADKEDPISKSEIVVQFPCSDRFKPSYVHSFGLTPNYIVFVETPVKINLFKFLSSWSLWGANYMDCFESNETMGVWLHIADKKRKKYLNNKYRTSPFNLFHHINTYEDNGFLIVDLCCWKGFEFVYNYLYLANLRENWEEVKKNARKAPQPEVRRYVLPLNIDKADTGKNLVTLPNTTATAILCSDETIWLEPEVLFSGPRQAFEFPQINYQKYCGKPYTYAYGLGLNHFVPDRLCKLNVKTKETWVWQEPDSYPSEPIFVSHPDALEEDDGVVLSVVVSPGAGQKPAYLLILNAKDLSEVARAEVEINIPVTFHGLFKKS
isomerase, sequence (Q91ZQ5 whole entry): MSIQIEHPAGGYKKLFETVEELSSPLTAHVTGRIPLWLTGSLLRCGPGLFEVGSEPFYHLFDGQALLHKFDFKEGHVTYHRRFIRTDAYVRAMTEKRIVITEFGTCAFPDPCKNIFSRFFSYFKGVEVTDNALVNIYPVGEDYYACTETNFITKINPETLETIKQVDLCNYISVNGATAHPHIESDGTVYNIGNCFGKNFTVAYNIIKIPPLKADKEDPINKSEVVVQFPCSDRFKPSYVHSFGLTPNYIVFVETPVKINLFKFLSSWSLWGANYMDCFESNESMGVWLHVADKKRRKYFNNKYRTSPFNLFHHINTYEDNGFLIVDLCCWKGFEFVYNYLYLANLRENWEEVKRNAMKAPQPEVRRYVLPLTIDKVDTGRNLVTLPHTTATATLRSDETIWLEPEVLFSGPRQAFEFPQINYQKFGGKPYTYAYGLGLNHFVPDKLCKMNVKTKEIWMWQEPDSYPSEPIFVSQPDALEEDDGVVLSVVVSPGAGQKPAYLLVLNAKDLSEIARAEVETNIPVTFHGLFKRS
visual cycle isomerase, sequence (Q28175 2-533): as the sequence (Q16518 2-533) above, with I2S, V135I, I154V, L299I, N320H, G321E, C426G counted along it
Protocol for visual cycle isomerase: The capability of compounds disclosed herein to inhibit the activity of a visual cycle isomerase was determined.
All tests were performed in duplicate.

As to `NCCCc1cccc(OCC2CCCCC2)c1` [Example 1, 3-(3-(Cyclohexylmethoxy)phenyl)propan-1-amine], the inhibition at 1 mg/kg on isomerase was 68%. In addition, the IC50 at visual cycle isomerase (setting [2]) is no more than 1000 nM.

On to `CCCC(CCC)COc1cccc(CCCN)c1` [Example 2, 3-(3-(2-Propylpentyloxy)phenyl)propan-1-amine], for which the inhibition at 1 mg/kg on isomerase came out at 1%. At visual cycle isomerase (setting [2]), this compound showed an IC50 of no more than 1000 nM.

In the case of `CCC(CC)COc1cccc(CCCN)c1` [Example 3, 3-(3-(2-Ethylbutoxy)phenyl)propan-1-amine], the inhibition at 1 mg/kg at isomerase amounted to 12%. The compound also showed an IC50 against visual cycle isomerase (setting [2]) of no more than 1000 nM.

`NCCC(=O)c1cccc(OCC2CCCCC2)c1` [Example 5, 3-Amino-1-(3-(cyclohexylmethoxy)phenyl)propan-1-one] displayed a 50% effective dose (ED50) on isomerase of 1 mg/kg. Moreover, the 50% inhibitory concentration (IC50) on visual cycle isomerase (setting [2]) is no more than 1000 nM.

`NCC(O)Cc1cccc(OCC2CCCCC2)c1` (stereo not shown) [Example 6, 1-Amino-3-(3-(cyclohexylmethoxy)phenyl)propan-2-ol] gave an IC50 on visual cycle isomerase (setting [2]) of no more than 1000 nM.

For `NCCOc1cccc(OCC2CCCCC2)c1` [Example 7, 2-(3-(Cyclohexylmethoxy)phenoxy)ethanamine], at isomerase, it took a dose of 4.2 mg/kg to reach the 50% effect level (ED50) and the inhibition at 1 mg/kg came out at 17%. For the same compound, on visual cycle isomerase (setting [2]), the IC50 was no more than 1000 nM.

Consider `NCCOc1cccc(OCc2ccccc2)c1` [Example 8, 2-(3-(Benzyloxy)phenoxy)ethanamine], for which the IC50 against visual cycle isomerase was 1000 to 10000 nM.

In the case of `NCCOc1cccc(OCC2CCCCCC2)c1` [Example 9, 2-(3-(Cycloheptylmethoxy)phenoxy)ethanamine], the inhibition at 1 mg/kg on isomerase turned out to be 6%. The IC50 at visual cycle isomerase (setting [2]) was no more than 1000 nM.

Compound `NCCCc1cccc(OCC2(O)CCCCC2)c1` [Example 10, 1-((3-(3-Aminopropyl)phenoxy)methyl)cyclohexanol] displayed an IC50 on visual cycle isomerase (setting [2]) of no more than 1000 nM.

At visual cycle isomerase (setting [2]), `NCCCc1cccc(OCC2(O)CCCCCC2)c1` [Example 11, 1-((3-(3-aminopropyl)phenoxy)methyl)cycloheptanol] had an IC50 of no more than 1000 nM.

`NCCC(O)c1cccc(OCC2(O)CCCCC2)c1` (stereo not shown) [Example 12, 1-((3-(3-Amino-1-Hydroxypropyl)Phenoxy)Methyl)Cyclohexanol]: the inhibition at 1 mg/kg on isomerase was found to be 59%. Also, at visual cycle isomerase (setting [2]), the IC50 was no more than 1000 nM.

As for `NCCC(O)c1cccc(OCC2(O)CCCCCC2)c1` (stereo not shown) [Example 13, 1-((3-(3-Amino-1-Hydroxypropyl)Phenoxy)Methyl)Cycloheptanol], the inhibition at 1 mg/kg at isomerase was 41%. Further, the IC50 is no more than 10 nM in assay [1] and no more than 1000 nM on visual cycle isomerase (setting [2]).

As for `NCCCc1cccc(OCC2CCCCCC2)c1` [Example 14, 3-(3-(Cycloheptylmethoxy)phenyl)propan-1-amine], the inhibition at 1 mg/kg at isomerase is 89%. On visual cycle isomerase (setting [2]), this compound came in with an IC50 of no more than 1000 nM.

On to `NCCC(O)c1cccc(OCC2CCCCCC2)c1` (stereo not shown) [Example 15, 3-Amino-1-(3-(cycloheptylmethoxy)phenyl)propan-1-ol], for which the inhibition at 1 mg/kg on isomerase turned out to be 91%. The IC50 was no more than 10 nM in assay [1] and no more than 1000 nM at visual cycle isomerase (setting [2]).

As for `NCCC(=O)c1cccc(OCC2CCCCCC2)c1` [Example 16, 3-amino-1-(3-(cycloheptylmethoxy)phenyl)propan-1-one], the inhibition at 1 mg/kg at isomerase is 60%. In addition, on visual cycle isomerase (setting [2]), the IC50 is no more than 1000 nM.

Consider `CCCC(CCC)COc1cccc(C(O)CCN)c1` (stereo not shown) [Example 17, 3-Amino-1-(3-(2-propylpentyloxy)phenyl)propan-1-ol], for which, on isomerase, the inhibition at 1 mg/kg is 96%. For the same compound, the half-inhibitory concentration (IC50) in assay [1] is no more than 10 nM; on visual cycle isomerase (setting [2]), no more than 1000 nM.

On to `NCCOc1cccc(OCC2(O)CCCCCC2)c1` [Example 18, 1-((3-(2-Aminoethoxy)Phenoxy)Methyl)Cycloheptanol], for which, on visual cycle isomerase, the IC50 was 1000 to 10000 nM.

`CC(=O)NCCC(O)c1cccc(OCC2CCCCC2)c1` (stereo not shown) [Example 19, N-(3-(3-(cyclohexylmethoxy)phenyl)-3-hydroxypropyl)acetamide] registered an IC50 at visual cycle isomerase of 1000 to 10000 nM.

With `CCCC(O)(CCC)COc1cccc(C(O)CCN)c1` (stereo not shown) [Example 20, 4-((3-(3-Amino-1-hydroxypropyl)phenoxy)methyl)heptan-4-ol], the inhibition at 1 mg/kg at isomerase is 98%. On visual cycle isomerase (setting [2]), this compound yielded an IC50 of no more than 1000 nM.

Regarding `NCCC(O)c1cccc(OCC2CCCC2)c1` (stereo not shown) [Example 35, 3-Amino-1-(3-(Cyclopentylmethoxy)Phenyl)Propan-1-Ol], the inhibition at 1 mg/kg at isomerase was determined as 95%. Also, in assay [1], the IC50 is no more than 10 nM.

As for `CCC(CC)COc1cccc(C(O)CCN)c1` (stereo not shown) [Example 45, 3-Amino-1-(3-(2-ethylbutoxy)phenyl)propan-1-ol], the inhibition at 1 mg/kg at isomerase was 98%. Further, the IC50 in assay [1] is no more than 10 nM.

Consider `NCCC(O)c1cccc(OCC2CC3CCC2C3)c1` (stereo not shown) [Example 48, 3-Amino-1-(3-(bicyclo[2.2.1]heptan-2-ylmethoxy)phenyl)propan-1-ol], for which the inhibition at 1 mg/kg on isomerase came to 47%. For the same compound, the IC50 in assay [1] was no more than 10 nM.

In the case of `CCCC(CCC)COc1cccc([C@H](O)[C@H](C)CN)c1` [Example 55, (1R,2R)-3-Amino-2-methyl-1-(3-(2-propylpentyloxy)phenyl)propan-1-ol], the inhibition at 1 mg/kg at isomerase was found to be 82%. For the same compound, the IC50 in assay [1] was no more than 10 nM.

For the compound `C[C@H](CN)[C@@H](O)c1cccc(OCC2CCCC2)c1` [Example 56, (1R,2R)-3-Amino-1-(3-(cyclopentylmethoxy)phenyl)-2-methylpropan-1-ol], the inhibition at 1 mg/kg at isomerase came to 10%. Also, the concentration for half-maximal inhibition (IC50) in assay [1] was no more than 10 nM.

As to `CCC(CC)COc1cccc([C@H](O)[C@H](C)CN)c1` [Example 72, (1R,2R)-3-Amino-1-(3-(2-ethylbutoxy)phenyl)-2-methylpropan-1-ol], at isomerase, the inhibition at 1 mg/kg worked out at 13%. Also, the IC50 in assay [1] is no more than 10 nM.

As for `C[C@H](CN)[C@@H](O)c1cccc(OCC2CCCCC2)c1` [Example 74, (1R,2R)-3-Amino-1-(3-(Cyclohexylmethoxy)Phenyl)-2-Methylpropan-1-Ol], the inhibition at 1 mg/kg at isomerase stood at 6%. For the same compound, the IC50 in assay [1] was no more than 10 nM.

Consider `COCCCCOc1cccc(C(O)CCN)c1` (stereo not shown) [Example 88, 3-Amino-1-(3-(4-methoxybutoxy)phenyl)propan-1-ol], for which the inhibition at 1 mg/kg at isomerase is 78%. The IC50 in assay [1] is no more than 10 nM.

The term IC50 denotes the concentration needed to halve the response being measured. What is called ED50 is the dose that gives a 50% effect, or the effect in half of the subjects.

The values are drawn from patent US10188615B2, “Alkoxy compounds for disease treatment” (Acucela Inc., priority 2007, dated 2019).
